Target: T1, human PAD4 (Homo sapiens, UniProt Q9UM07)
T1 construct: human PAD4 (NM_012387), A2P663, was PCR amplified; His-SUMO (N, cleaved yes); made in house; host or cells: E. coli BL21(DE3)
Assay: In vitro PAD4 BAEE biochemical assay
Conditions: human PAD4, BAEE substrate; 5 nM PAD4, 2 mM calcium chloride, 3 mM BAEE; geometric mean of multiple experiments
How it was run: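 Tag-free recombinant hPAD4 (5 nM), 2 mM CaCl2, 3 mM BAEE, 50 mM MOPS pH 7.6, 2 mM DTT; 30 min compound preincubation, 2 h reaction, all 25 °C. EDTA quench; ammonia read via o-phthalaldehyde amine coupling, 1 h.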

T1 sequence (Q9UM07 2-663): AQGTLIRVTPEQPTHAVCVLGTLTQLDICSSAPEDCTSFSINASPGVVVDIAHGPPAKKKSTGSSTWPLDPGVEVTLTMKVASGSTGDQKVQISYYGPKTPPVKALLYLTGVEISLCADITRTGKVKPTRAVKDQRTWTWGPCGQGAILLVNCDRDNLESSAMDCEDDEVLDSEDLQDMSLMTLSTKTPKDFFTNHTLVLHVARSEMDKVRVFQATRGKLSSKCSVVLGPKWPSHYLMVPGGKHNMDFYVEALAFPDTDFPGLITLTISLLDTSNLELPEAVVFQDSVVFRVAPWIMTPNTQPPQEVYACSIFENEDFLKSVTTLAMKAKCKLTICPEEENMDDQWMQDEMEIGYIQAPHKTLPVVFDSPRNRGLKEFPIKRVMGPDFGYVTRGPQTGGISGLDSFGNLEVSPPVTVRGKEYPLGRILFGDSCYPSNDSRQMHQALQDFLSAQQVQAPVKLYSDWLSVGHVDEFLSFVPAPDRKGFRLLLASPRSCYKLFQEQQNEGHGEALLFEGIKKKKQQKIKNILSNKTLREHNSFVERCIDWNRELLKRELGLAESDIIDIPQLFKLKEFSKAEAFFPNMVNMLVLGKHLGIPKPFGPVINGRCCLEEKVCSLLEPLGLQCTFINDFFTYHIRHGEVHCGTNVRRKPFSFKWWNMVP

Row | SMILES | IC50 [nM]
1 | COc1cc(C(=O)N2C[C@H](N)CC[C@@H]2C)cc2nc(-c3cc4ccc(-c5c(C)n[nH]c5C)nc4n3CC3CC3)c(C)n12 [Example 611, [(2~{S},5~{R})-5-amino-2-methylpiperidin-1-yl]-[2-[1-(cyclopropylmethyl)-6-(3,5-dimethyl-1~{H}-pyrazol-4-yl)pyrrolo[2,3-b]pyridin-2-yl]-5-methoxy-3-methylimidazo[1,2-a]pyridin-7-yl]methanone] | 726
2 | CCc1ccc2cc(-c3nc4cc(C(=O)N5CCC6(CC6)[C@@H](N)C5)cc(OC)n4c3C)n(CC3CC3)c2n1 [Example 592, [(8~{R})-8-amino-6-azaspiro[2.5]octan-6-yl]-[2-[1-(cyclopropylmethyl)-6-ethylpyrrolo[2,3-b]pyridin-2-yl]-5-methoxy-3-methylimidazo[1,2-a]pyridin-7-yl]methanone] | 9000
3 | COc1cc(C(=O)N2CCC[C@@H](N)C2)cc2nc(-c3cc4ccc(C5CC5C(=O)N(C)C)nc4n3CC3CC3)c(C)n12 (some centres unmarked) [Example 533, 2-[2-[7-[(3~{R})-3-aminopiperidine-1-carbonyl]-5-methoxy-3-methylimidazo[1,2-a]pyridin-2-yl]-1-(cyclopropylmethyl)pyrrolo[2,3-b]pyridin-6-yl]-~{N},~{N}-dimethylcyclopropane-1-carboxamide] | 933
4 | COc1cc(C(=O)N2[C@H]3CCC[C@@H]2[C@H](N)C3)cc2nc(-c3cc4ccc(N(C(F)F)S(C)(=O)=O)nc4n3CC3CC3)c(C)n12 [Example 332, N-[2-[7-[(1S,5R,6R)-6-amino-8-azabicyclo[3.2.1]octane-8-carbonyl]-5-methoxy-3-methyl-imidazo [1,2-a]pyridin-2-yl]-1-(cyclopropylmethyl)pyrrolo [2,3-b]pyridin-6-yl]-N-(difluoromethyl) methanesulfonamide] | 390
5 | COc1cc(C(=O)N2C[C@@H]3C[C@]3(N)C2)cc2nc(-c3cc4ccc([C@@H](C)NC(=O)C56CC(F)(C5)C6)nc4n3CC3CC3)c(C)n12 [Example 25, ~{N}-[(1~{R})-1-[2-[7-[(1~{R},5~{S})-1-amino-3-azabicyclo [3.1.0]hexane-3-carbonyl]-5-methoxy-3-methylimidazo [1,2-a]pyridin-2-yl]-1-(cyclopropylmethyl)pyrrolo[2,3-b]pyridin-6-yl]ethyl]-3-fluorobicyclo[1.1.1] pentane-1-carboxamide] | 4450
6 | COc1cc(C(=O)N2[C@H]3CC[C@@H]2[C@H](N)C3)cc2nc(-c3cc4ccc([C@@H](C)NC(=O)c5ccc(F)cc5F)nc4n3CC3CC3)c(C)n12 [Example 56, ~{N}-[(1~{R})-1-[2-[7-[(1~{R},2~{R}, 4~{S})-2-amino-7-azabicyclo[2.2.1]heptane-7-carbonyl]-5-methoxy-3-methylimidazo[1,2-a]pyridin-2-yl]-1-(cyclopropylmethyl)pyrrolo[2,3-b]pyridin-6-yl]ethyl]-2,4-difluorobenzamide] | 254
7 | COc1cc(C(=O)N2[C@H]3CC[C@@H]2[C@H](N)C3)cc2nc(-c3cc4ccc([C@@H](C)NC(=O)C56CC(F)(C5)C6)nc4n3CC3CC3)c(C3CC3)n12 [Example 144, ~{N}-[(1~{R})-1-[2-[7-[(1~{R},2~{R},4~{S})-2-amino-7-azabicyclo[2.2.1]heptane-7-carbonyl]-3-cyclopropyl-5-methoxyimidazo[1,2-a]pyridin-2-yl]-1-(cyclopropylmethyl)pyrrolo [2,3-b]pyridin-6-yl]ethyl]-3-fluorobicyclo[1.1.1]pentane-1-carboxamide] | 130
8 | COc1cc(C(=O)N2[C@H]3CC[C@@H]2[C@H](N)C3)cc2nc(-c3cc4ccc(C5CCN(C(=O)C(C)(C)C)CC5)nc4n3CC3CC3)c(C)n12 [Example 526, 1-[4-[2-[7-[(1~{R},2~{R}, 4~{S})-2-amino-7-azabicyclo[2.2.1]heptane-7-carbonyl]-5-methoxy-3-methylimidazo[1,2-a]pyridin-2-yl]-1-(cyclopropylmethyl)pyrrolo [2,3-b]pyridin-6-yl]piperidin-1-yl]-2,2-dimethylpropan-1-one] | 458
9 | COc1cc(C(=O)N2CC[C@@H]3CCNC[C@@H]32)cc2nc(-c3cc4ccc(N(C(F)F)S(C)(=O)=O)nc4n3CC3CC3)c(C)n12 [Example 321, ~{N}-[2-[7-[(3~{a}~{S},7~{a}~{R})-2,3,3~{a},4,5,6,7,7~{a}-octahydropyrrolo[2,3-c]pyridine-1-carbonyl]-5-methoxy-3-methylimidazo[1,2-a]pyridin-2-yl]-1-(cyclopropylmethyl)pyrrolo [2,3-b]pyridin-6-yl]-~{N}-(difluoromethyl) methanesulfonamide] | 278
10 | COc1cc(C(=O)N2[C@H]3CC[C@@H]2[C@H](N)C3)cc2nc(-c3cc4ccc([C@@H](C)NC(=O)c5cnn(C)c5Cl)nc4n3CC3CC3)c(C)n12 [Example 75, ~{N}-[(1~{R})-1-[2-[7-[(1~{R},2~{R},4~{S})-2-amino-7-azabicyclo[2.2.1]heptane-7-carbonyl]-5-methoxy-3-methylimidazo [1,2-a]pyridin-2-yl]-1-(cyclopropylmethyl)pyrrolo [2,3-b]pyridin-6-yl]ethyl]-5-chloro-1-methylpyrazole-4-carboxamide] | 39.2
11 | COc1cc(C(=O)N2CC[C@@H]3CCN[C@@H]3C2)cc2nc(-c3cc4ccc(N(C(F)F)S(C)(=O)=O)nc4n3CC3CC3)c(C)n12 [Example 419] | 1170
12 | COc1cc(C(=O)N2[C@H]3CC[C@@H]2[C@H](N)C3)cc2nc(-c3cc4ccc([C@@H](C)NC(=O)C5(O)CCCC5)nc4n3CC3CC3)c(C)n12 [Example 88, ~{N}-[(1~{R})-1-[2-[7-[(1~{R},2~{R},4~{S})-2-amino-7-azabicyclo[2.2.1]heptane-7-carbonyl]-5-methoxy-3-methylimidazo [1,2-a]pyridin-2-yl]-1-(cyclopropylmethyl)pyrrolo [2,3-b]pyridin-6-yl]ethyl]-1-hydroxycyclopentane-1-carboxamide] | 44.2
13 | CCN(c1ccc2cc(-c3nc4cc(C(=O)N5CCC[C@@H](N)C5)cc(OC)n4c3C)n(CC3CC3)c2n1)S(C)(=O)=O [Example 484, ~{N}-[2-[7-[(3~{R})-3-aminopiperidine-1-carbonyl]-5-methoxy-3-methylimidazo[1,2-a]pyridin-2-yl]-1-(cyclopropylmethyl)pyrrolo [2,3-b]pyridin-6-yl]-~{N}-ethylmethanesulfonamide] | 145
14 | C=CCC(=O)N[C@H](C)c1ccc2cc(-c3nc4cc(C(=O)N5[C@H]6CC[C@@H]5[C@H](N)C6)cc(OC)n4c3C)n(CC3CC3)c2n1 [Example 64, ~{N}-[(1~{R})-1-[2-[7-[(1~{R},2~{R},4~{S})-2-amino-7-azabicyclo[2.2.1]heptane-7-carbonyl]-5-methoxy-3-methylimidazo [1,2-a]pyridin-2-yl]-1-(cyclopropylmethyl)pyrrolo[2,3-b]pyridin-6-yl]ethyl]but-3-enamide] | 38.5
15 | COc1cc(C(=O)N2[C@H]3CC[C@@H]2[C@H](N)C3)cc2nc(-c3cc4ccc(C5CCN(C(C)=O)CC5)nc4n3CC3CC3)c(C)n12 [Example 527, 1-[4-[2-[7-[(1~{R},2~{R}, 4~{S})-2-amino-7-azabicyclo[2.2.1]heptane-7-carbonyl]-5-methoxy-3-methylimidazo[1,2-a]pyridin-2-yl]-1-(cyclopropylmethyl)pyrrolo [2,3-b]pyridin-6-yl]piperidin-1-yl] ethenone] | 220
16 | COc1cc(C(=O)N2[C@H]3CC[C@@H]2[C@H](N)C3)cc2nc(-c3cc4ccc([C@@H](C)NC(=O)C5CN(C(C)=O)C5)nc4n3CC3CC3)c(C)n12 [Example 149, 1-acetyl-~{N}-[(1~{R})-1-[2-[7-[(1~{R},2~{R},4~{S})-2-amino-7-azabicyclo [2.2.1]heptane-7-carbonyl]-5-methoxy-3-methylimidazo [1,2-a]pyridin-2-yl]-1-(cyclopropylmethyl)pyrrolo [2,3-b]pyridin-6-yl]ethyl] azetidine-3-carboxamide] | 77
17 | COc1cc(C(=O)N2[C@H]3CC[C@@H]2[C@H](N)C3)cc2nc(-c3cc4ccc(-c5cccnc5C(F)(F)F)nc4n3CC3CC3)c(C)n12 [Example 551, [(1~{R},2~{R},4~{S})-2-amino-7-azabicyclo [2.2.1]heptan-7-yl]-[2-[1-(cyclopropylmethyl)-6-[2-(trifluoromethyl)pyridin-3-yl]pyrrolo[2,3-b]pyridin-2-yl]-5-methoxy-3-methylimidazo [1,2-a]pyridin-7-yl] methanone] | 511
18 | COc1cc(C(=O)N2[C@H]3CC[C@@H]2[C@H](N)C3)cc2nc(-c3cc4ccc([C@@H](C)NC(=O)c5ccccc5C)nc4n3CC3CC3)c(C)n12 [Example 121, ~{N}-[(1~{R})-1-[2-[7-[(1~{R},2~{R},4~{S})-2-amino-7-azabicyclo[2.2.1]heptane-7-carbonyl]-5-methoxy-3-methylimidazo [1,2-a]pyridin-2-yl]-1-(cyclopropylmethyl)pyrrolo [2,3-b]pyridin-6-yl]ethyl]-2-methylbenzamide] | 108
19 | COc1cc(C(=O)N2CC[C@H]3CCN[C@H]3C2)cc2nc(-c3cc4ccc([C@@H](C)NC(=O)c5ccccc5)nc4n3CC3CC3)c(C)n12 [Example 59, ~{N}-[(1~{R})-1-[2-[7-[(3~{a}~{R}, 7~{a}~{R})-1,2,3,3~{a},4,5,7,7~{a}-octahydropyrrolo[2,3-c]pyridine-6-carbonyl]-5-methoxy-3-methylimidazo[1,2-a]pyridin-2-yl]-1-(cyclopropylmethyl)pyrrolo[2,3-b]pyridin-6-yl]ethyl]benzamide] | 194
20 | COc1cc(C(=O)N2CCC[C@@H](N)C2)cc2nc(-c3cc4ccc([C@@H](C)CC(=O)N(C)C)nc4n3CC3CC3)c(C)n12 [Example 535, (3~{S})-3-[2-[7-[(3~{R})-3-aminopiperidine-1-carbonyl]-5-methoxy-3-methylimidazo[1,2-a]pyridin-2-yl]-1-(cyclopropylmethyl)pyrrolo [2,3-b]pyridin-6-yl]-~{N},~{N}-dimethylbutanamide] | 305
